According to patent US8652799B2, “Method of detecting bioactive molecules in a fluid sample” (priority 2008, dated 2014):
Where two headings read alike, the source gives them in different places.

Key:
Type in all cases: cell-based
Anabaena sp. = assay: Detection of bioactive molecules with Anabaena sp.: inhibition of photosynthetic fluorescence (Luminotox); settings: 1 ppm, neutral pH; for inhibition at 1 ppm: 10 min
Experimental: The photosynthetic efficiency is determined with the following formula (F2−F1)/F2. Any molecule affecting directly or indirectly the photosystems modify either F1 or F2 which modification necessarily decreases the photosynthetic efficiency. The inhibition curve of a particular molecule is determined by calculating the activity of the photosystems in the absence of the molecule and in the presence of the molecule and comparing both efficiency as follows as described in Conrad 1993:
Without Inhibitor (wi): efficiency(wi)=(F2(wi)−F1(wi)/F2(wi) With Inhibitor: Relative photosynthetic efficiency(sample)=(F2(sample)−F1(sample))/F2(wi) Percentage Efficiency: efficiency (%)=(efficiency(sample)×100)/efficiency(wi) Percentage Inhibition: Inhibition (%)=100−efficiency (%)
An Anabaena sp. culture was prepared as described in Example 3 above. As indicated in Example 3, the cyanobacteria were reactivated before testing under ambient light and at room temperature during 60 minutes.
The culture was then incubated with bioactive molecules listed in Table 1 below at concentrations of 1 ppm (except for atrazine which was used at a concentration of 1 ppb) for 10 minutes under ambient light followed by 10 minutes under green light and neutral pH. The cellular concentration was 1.0×10^7 cells/mL (100 μL of cyanobacteria within 2 mL of bioactive agent containing aqueous solution (i.e. distilled water)). Testing was performed in triplicates. The fluorescence emitted by each formulation was then measured with Luminotox™ a fluorometer that measures photosynthetic activity.

Chlorella vulgaris [1] = system: Chlorella vulgaris
Experimental: The algae concentration was 5×10^6 cells/mL (100 μL of algae within 2 mL of aqueous solution (i.e. distilled water)) containing the substance to detect at indicated concentrations. For each substances, 5 concentrations in triplicates were tested. The TOXSTAT™ software was used to calculate from inhibition values and standard deviations obtained, the maximum concentration without observable effect and the minimal concentration with observable effects. The threshold was calculated with the following formula: (maximum concentration without observable effect x minimal concentration with observable effects)^1/2 (See Table 2 below). The temperature was controlled by a thermostatic bath.
(§1) The detection threshold was obtained with the geometric mean. It was calculated with the following formula: Detection threshold=(CSEO×CMEO)^1/2 where
(§2) CMEO=minimal concentration resulting in a detectable inhibition of the algae efficacy.
(§3) CSEO and CMEO were estimated by a variance analysis ANNOVA™ followed by a Dunnett multiple comparison by comparing the mean efficacy of each tested concentration with the control mean. Calculations were performed with TOXSTAT™ (Version 3.5).

Dunaliella tertiolecta [2] = settings: 15 min. green light exposition at room temperature
Experimental: as §1, §2, §3
(§4) A Dunaliella tertiolecta culture was prepared as described in Example 2 above. As indicated in Example 2, the algae were reactivated before testing under ambient light and at room temperature during 45 minutes.
The algae formulations were then incubated for 15 minutes with water containing one of the various contaminants listed in Table 2 below at neutral pH under green light and at room temperature. The algae concentration was 350 000 cells/mL (500 μL of algae within 2 mL of aqueous solution (i.e. distilled water) containing substance to detect at indicated concentrations). For each substances, 5 concentrations in triplicates were tested. The TOXSTAT™ software was used to calculate from inhibition values and standard deviations obtained, the maximum concentration without observable effect and the minimal concentration with observable effects (See Table 2 below). The temperature was controlled by a thermostatic bath. Tests were performed in triplicates. The fluorescence emitted by each formulation was then measured with Luminotox™, a fluorometer that measures photosynthetic activity and detection threshold determined as described in the Example above.

Chlorella vulgaris [3] = settings: for Inhibition: 0.5 ppm
Experimental: (§5) A Chlorella vulgaris culture was prepared as described in Example 1 above. As indicated in Example 1, the algae were reactivated before testing under ambient light and at room temperature during 90 minutes.
The formulation was then incubated under ambient light at 35° C. and at neutral pH with cadmium, copper, chromium, zinc, nickel, or lead, at indicated concentrations at incubation times varying between 15 minutes and 120 minutes. (FIGS. 9 to 12). The formulations were tested without additives or with 1 ppm cadmium, 0.1 ppm copper or 0.25 ppm copper as additive. The cellular concentration was 2.5×10^6 cells/mL (50 μL of algae within 2 mL of metal containing aqueous solution (i.e. distilled water)). Testing was performed in triplicates. The fluorescence emitted by each formulation was then measured with Luminotox™, a fluorometer that measures photosynthetic activity.

Dunaliella tertiolecta [4] = assay: Progesterone detection with Dunaliella tertiolecta, green light versus white light then green light; settings: 0.25 h, 15 min green light only, 350 000 cells/mL, read-out: Maximum percentage inhibition
Experimental: as §4
The formulation was then incubated with progesterone at concentrations of 0; 0.05; […] or 1 ppm for 15 minutes under green light only or for 15 minutes under ambient light followed by 5 to 35 minutes under green light. The cellular concentration was 350 000 cells/mL (500 μL of algae within 2 mL of progesterone containing aqueous solution (i.e. distilled water)). Testing was performed in triplicates. The fluorescence emitted by each formulation was then measured with Luminotox™, a fluorometer that measures photosynthetic activity.

Chlorella vulgaris [5] = assay: Inhibition of fluorescence emission of Chlorella vulgaris incubated at 35° C.; settings: 15 minutes
Experimental: The present invention also concerns a method for ammonia nitrogen detection comprising changing algal cell permeability. This compound is detected at 100 ppm at neutral pH but the increment of pH up to 11 decreases the threshold to 1 ppm. Algal permeability can also be modified by increasing the incubation temperature of the assay. For example, fluorescence emission is inhibited in 15 minutes by copper ions, tetracycline and progesterone if Chlorella vulgaris is incubated at 35° C., while at room temperature the detection of these compounds in 15 minutes was possible when these compounds are present at higher concentrations. Chlorella vulgaris is a freshwater alga and is used for freshwater monitoring while Dunaliella tertiolecta is used of for marine water monitoring.

Chlorella vulgaris [6] = assay: Effect of pH on detection of ammoniacal nitrogen with Chlorella vulgaris; settings: for Concentration of NH3 at which 20% inhibition was achieved: 10 min green light, room temperature
Experimental: A Chlorella vulgaris culture was prepared as described in Example 1 above. As indicated above, the algae were reactivated before testing during 90 minutes under ambient light and at room temperature.
The culture was then incubated with ammoniacal nitrogen for 10 minutes under green light and at room temperature. The desired pH was achieved by adding NaOH to a glycine 20 mM buffer. The cellular concentration of the algae was 5×10^6 cells/mL of solution (100 μL algae in 2 mL of ammoniacal nitrogen containing aqueous solution (i.e. distilled water)). Testing was performed in triplicates. The fluorescence emitted by each formulation was then measured with Luminotox™, a fluorometer that measures photosynthetic activity. Although the Luminotox™ was used in Examples presented herein, any fluorometer able to measure […] can be used in accordance with the present invention.

Chlorella vulgaris [7] = assay: Detection of lead with Chlorella vulgaris with single additives or additive mixtures
Experimental: as §5
The formulation was then incubated under ambient light at 35° C. and at neutral pH with lead, at indicated concentrations and at incubation times varying between 15 minutes and 120 minutes (FIGS. 13 to 16). The formulations were tested with or without additives used as single additives (Cd 1 ppm, Cu 0.1 ppm and Cu 0.25 ppm) or mixes of additives (Cu 0.1 ppm+Cd 0.5 ppm; Cu 0.1 ppm+Cd 1 ppm; Cu 0.25 ppm+Cd 1 ppm). The cellular concentration was 2.5×10^6 cells/mL (50 μL of algae within 2 mL of lead containing aqueous solution (i.e. distilled water) with or without additives). Testing was performed in triplicates. The fluorescence emitted by each formulation was then measured with Luminotox™ a fluorometer that measures photosynthetic activity.

Chlorella vulgaris [8] = assay: Stability of F2 fluorescence of Chlorella vulgaris incubated with additives
Experimental: F2 fluorescence levels produced by Chlorella vulgaris prepared as described in Example 1 above was measured after incubation with additives tested above, namely cadmium (0.5 ppm), cadmium (1 ppm), copper (0.1 ppm) and copper (0.25 ppm). As may be seen in FIG. 8, F2 fluorescence was stable after up to 120 minutes of incubation for each of these additives.

[9] = 10 min ambient light followed by 10 min green light, read-out: Inhibition obtained at 1 ppm (followed by 10 min green light)
[10] = 10 min ambient light, 1.0×10^7 cells/mL, read-out: Inhibition obtained at 1 ppm (10 min ambiant light)
[11] = 10-15 min. exposition to ambiant light at 35° C., neutral pH (pH 7), 5×10^6 cells/mL
[12] = neutral pH (pH 7), 350 000 cells/mL
[13] = 10 min ambient light followed by 10 min green light
[14] = 10 min ambient light, 1.0×10^7 cells/mL
[15] = 1 ppm, 60 minutes of incubation, without additive

CCOP(=S)(OCC)Oc1nc(Cl)c(Cl)cc1Cl [chlorpyrifos]
inhibition at 1 ppm (Anabaena sp.; [9]): 10% | inhibition at 1 ppm (Anabaena sp.; [10]): 0% | Detection threshold (Chlorella vulgaris [1]; [11]): 1 ppm | Detection threshold (Dunaliella tertiolecta [2]; [12]): 1 ppm

CN(C)C(=O)Nc1ccc(Cl)c(Cl)c1 [Diuron]
Detection threshold (Chlorella vulgaris [1]; [11]): 0.006 ppm | Detection threshold (Chlorella vulgaris [1]; 10-15 min. green light exposition at room temperature, neutral pH (pH 7), 5×10^6 cells/mL): <0.0005 ppm | Detection threshold (Chlorella vulgaris [1]; 10-15 min. green light exposition at room temperature, neutral pH (pH 7), 5×10^6 cells/mL, listed as diuron): lower than 0.0005 ppm | Detection threshold (Dunaliella tertiolecta [2]; [12]): 0.002 ppm

[Ni] [nickel]
Detection (Chlorella vulgaris [3]; 1 ppm, 120 minutes of incubation): weakly detected

CCc1cccc(C)c1N(C(=O)CCl)C(C)COC (stereo not shown) [metolachlor]
inhibition at 1 ppm (Anabaena sp.; [9]): 22% | inhibition at 1 ppm (Anabaena sp.; [10]): 0%

[Cr] [Cr, Chrome]
Detection (Chlorella vulgaris [3]; 0.1 ppm, 60 minutes of incubation, without additive): detected although weakly

CC(=O)[C@H]1CC[C@H]2[C@@H]3CCC4=CC(=O)CC[C@]4(C)[C@H]3CC[C@]12C [progesterone]
inhibition at 1 ppm (Dunaliella tertiolecta [4]): 40% | Fluorescence emission (Chlorella vulgaris [5]): inhibited

Ammonia nitrogen
Concentration at which the compound is detected (Chlorella vulgaris [6]; neutral pH): 100 ppm | Concentration of NH3 at which 20% inhibition was achieved (Chlorella vulgaris [6]; pH 7): 100 ppm | Concentration of NH3 at which 20% inhibition was achieved (Chlorella vulgaris [6]; pH 9): 5 ppm | Concentration of NH3 at which 20% inhibition was achieved (Chlorella vulgaris [6]; pH 11): lower than 2 ppm | Concentration of NH3 at which 20% inhibition was achieved (Chlorella vulgaris [6]; pH 12): lower than 2 ppm | Detection threshold (Chlorella vulgaris [6]; pH up to 11): 1 ppm | Detection threshold (Chlorella vulgaris [1]; pH 11, 10-15 min. exposition to ambiant light at 35° C.): 1 ppm at pH 11 | Detection threshold (Chlorella vulgaris [1]; pH 11, 10-15 min. green light exposition at room temperature): 1 ppm at pH 11 | Detection threshold (Dunaliella tertiolecta [2]; pH 11): 1 ppm at pH 11

Mercury [Hg]
Detection threshold (Chlorella vulgaris [1]; [11]): 0.22 ppm

COP(=O)(OC)O/C(C)=C/C(=O)N(C)C [dicrotophos]
inhibition at 1 ppm (Anabaena sp.; [9]): 17% | inhibition at 1 ppm (Anabaena sp.; [10]): 2% | Detection threshold (Dunaliella tertiolecta [2]; [12]): 235 ppm

O=C(O)CNCP(=O)(O)O [glyphosate]
inhibition at 1 ppm (Anabaena sp.; [9]): 7% | inhibition at 1 ppm (Anabaena sp.; [10]): 0% | Detection threshold (Chlorella vulgaris [1]; [11]): 100 ppm | Detection threshold (Dunaliella tertiolecta [2]; [12]): 50 ppm

CCOC(=O)CC(SP(=S)(OC)OC)C(=O)OCC (stereo not shown) [malathion]
inhibition at 1 ppm (Anabaena sp.; [9]): 17% | inhibition at 1 ppm (Anabaena sp.; [10]): 0% | Detection threshold (Dunaliella tertiolecta [2]; [12]): 50 ppm

cyanure
Inhibition obtained at 1 ppm (followed by 10 min green light) (Anabaena sp.; [13]): 16% | Inhibition obtained at 1 ppm (10 min ambiant light) (Anabaena sp.; [14]): 0% | Detection threshold (Chlorella vulgaris [1]; [11]): 0.16 ppm

[Pb] [Pb, Lead]
Concentration of lead detected (Chlorella vulgaris [7]; 15 minutes of incubation, with mixtures of additives): 1 ppm | Concentration of lead detected (Chlorella vulgaris [7]; 30 minutes of incubation, mixture Cu 0.1 ppm+Cd 1 ppm): 0.1 ppm | Concentration of lead whose detection was increased (Chlorella vulgaris [7]; 60 minutes of incubation, all additive mixtures): ≥ 0.1 ppm | Concentration of lead detected (Chlorella vulgaris [7]; 120 minutes of incubation, additive mixtures Cu 0.1 ppm+Cd 0.5 ppm and Cu 0.25 ppm+Cd 1 ppm): 0.01 ppm | Detection threshold (Chlorella vulgaris [1]; [11]): <0.5 ppm | Detection (Chlorella vulgaris [3]; [15]): detected although weakly

[Cd] [Cd, Cadmium]
F2 fluorescence over time (Chlorella vulgaris [8]; 0.5 ppm, up to 120 minutes of incubation): stable | F2 fluorescence over time (Chlorella vulgaris [8]; 1 ppm, after 120 minutes of incubation): decrease of fluorescence | Detection threshold (Chlorella vulgaris [1]; [11]): 0.3 ppm | Detection (Chlorella vulgaris [3]; 1 ppm alone, 15 minutes of incubation): not detected | Detection (Chlorella vulgaris [3]; [15]): detected although weakly

gramicidine
Inhibition obtained at 1 ppm (followed by 10 min green light) (Anabaena sp.; [13]): 15% | Inhibition obtained at 1 ppm (10 min ambiant light) (Anabaena sp.; [14]): 0%

CC(C)N1C(=O)c2ccccc2NS1(=O)=O [bentazone]
inhibition at 1 ppm (Anabaena sp.; [9]): 28% | inhibition at 1 ppm (Anabaena sp.; [10]): 0%

[Cu] [Cu, Copper]
F2 fluorescence over time (Chlorella vulgaris [8]; 0.1 ppm, up to 120 minutes of incubation): stable | F2 fluorescence over time (Chlorella vulgaris [8]; 0.25 ppm, up to 120 minutes of incubation): stable | Detection threshold (Chlorella vulgaris [1]; [11]): 0.25 ppm | Fluorescence emission (Chlorella vulgaris [5]): inhibited | Detection (Chlorella vulgaris [3]; 0.25 ppm, 60 minutes of incubation, without additives): not detected | Inhibition (Chlorella vulgaris [3]; 15 minutes of incubation, cadmium 1 ppm as additive): 30% | Inhibition (Chlorella vulgaris [3]; 15 minutes of incubation, without additive, ambient light 35° C.): 15%

CNC(=O)O/N=C/C(C)(C)SC [aldicarbe]
Inhibition obtained at 1 ppm (followed by 10 min green light) (Anabaena sp.; [13]): 30% | Inhibition obtained at 1 ppm (10 min ambiant light) (Anabaena sp.; [14]): 0%
